Reference: patent US20230346760A1, “AGENTS TO PREVENT TISSUE DAMAGE FROM CLOSTRIDIUM DIFFICILE INFECTIONS BY INHIBITION OF THE GUT-DAMAGING BACTERIAL TOXINS TCDA AND TCDB” (ALBERT EINSTEIN COLLEGE OF MEDICINE, priority 2020, published 2023)
“Also recorded” adds a separate entry of the source. Read-outs that look alike come from different tables or passages of the source.

Key:
[1] = system: TcdA induced apoptosis in HT-29 cells; assay type: cell-based
TcdB-GTD = biological target: T1, TcdB-GTD (Clostridioides difficile, UniProt P18177); assay type: binding, Clostridium difficile
T1 construct: (50 mM HEPES pH 7.5, 100 mM KCl, 4 mM MgCl2, 1 mM MnCl2) and 40 μM TcdB-GTD

TcdA [2] = biological target: T2, TcdA (Clostridioides difficile, UniProt P16154); test: biochemical; assay type: binding, Clostridium difficile
[3] = system: TcdB induced cell rounding of CHO-K1 cells; assay type: cell-based
TcdB = TcdB (Clostridioides difficile, UniProt P18177); test: Kinetic inhibition of TcdB glucosyltransferase / UDP-glucose hydrolysis; assay type: biochemical, Clostridium difficile
[4] = system: Rac1 glucosylation by TcdA in IMR90 cells; assay type: cell-based
[5] = system: Rac1 glucosylation by TcdB in IMR90 cells; assay type: cell-based
[6] = system: TcdA induced rounding of CHO-K1 cells; assay type: cell-based
TcdA [7] = biological target: T2, TcdA; assay type: biochemical, Clostridium difficile

Chain of TcdB (P18177 1-543 limits assumed): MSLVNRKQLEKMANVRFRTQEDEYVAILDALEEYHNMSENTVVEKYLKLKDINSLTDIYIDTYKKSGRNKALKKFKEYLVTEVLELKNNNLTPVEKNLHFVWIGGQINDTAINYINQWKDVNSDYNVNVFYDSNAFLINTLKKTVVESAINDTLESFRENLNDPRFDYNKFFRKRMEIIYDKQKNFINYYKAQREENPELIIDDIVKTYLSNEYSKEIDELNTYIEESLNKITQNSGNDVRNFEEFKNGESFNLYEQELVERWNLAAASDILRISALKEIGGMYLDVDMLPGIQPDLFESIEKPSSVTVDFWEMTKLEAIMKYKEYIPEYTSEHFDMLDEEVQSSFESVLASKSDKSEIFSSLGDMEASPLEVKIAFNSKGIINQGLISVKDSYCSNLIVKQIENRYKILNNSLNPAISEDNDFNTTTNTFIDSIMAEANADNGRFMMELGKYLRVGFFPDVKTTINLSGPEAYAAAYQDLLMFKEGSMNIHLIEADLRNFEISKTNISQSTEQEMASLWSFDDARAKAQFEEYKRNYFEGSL
T1 sequence (P18177 2-543 limits assumed): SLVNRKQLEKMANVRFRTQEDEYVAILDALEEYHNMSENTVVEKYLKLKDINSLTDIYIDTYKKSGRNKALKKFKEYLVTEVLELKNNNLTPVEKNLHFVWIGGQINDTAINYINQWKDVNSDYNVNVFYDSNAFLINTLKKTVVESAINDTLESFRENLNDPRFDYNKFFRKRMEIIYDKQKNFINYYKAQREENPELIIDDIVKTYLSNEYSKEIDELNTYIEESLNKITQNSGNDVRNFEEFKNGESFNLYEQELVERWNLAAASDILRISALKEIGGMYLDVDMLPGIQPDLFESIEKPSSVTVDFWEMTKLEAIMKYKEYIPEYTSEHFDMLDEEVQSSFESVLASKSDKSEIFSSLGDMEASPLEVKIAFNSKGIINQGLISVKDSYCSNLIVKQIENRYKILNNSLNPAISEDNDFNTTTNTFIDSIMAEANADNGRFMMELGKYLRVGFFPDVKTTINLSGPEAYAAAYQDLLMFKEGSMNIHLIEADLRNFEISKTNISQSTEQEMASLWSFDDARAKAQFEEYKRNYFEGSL
T2 sequence (P16154 whole entry, looked up): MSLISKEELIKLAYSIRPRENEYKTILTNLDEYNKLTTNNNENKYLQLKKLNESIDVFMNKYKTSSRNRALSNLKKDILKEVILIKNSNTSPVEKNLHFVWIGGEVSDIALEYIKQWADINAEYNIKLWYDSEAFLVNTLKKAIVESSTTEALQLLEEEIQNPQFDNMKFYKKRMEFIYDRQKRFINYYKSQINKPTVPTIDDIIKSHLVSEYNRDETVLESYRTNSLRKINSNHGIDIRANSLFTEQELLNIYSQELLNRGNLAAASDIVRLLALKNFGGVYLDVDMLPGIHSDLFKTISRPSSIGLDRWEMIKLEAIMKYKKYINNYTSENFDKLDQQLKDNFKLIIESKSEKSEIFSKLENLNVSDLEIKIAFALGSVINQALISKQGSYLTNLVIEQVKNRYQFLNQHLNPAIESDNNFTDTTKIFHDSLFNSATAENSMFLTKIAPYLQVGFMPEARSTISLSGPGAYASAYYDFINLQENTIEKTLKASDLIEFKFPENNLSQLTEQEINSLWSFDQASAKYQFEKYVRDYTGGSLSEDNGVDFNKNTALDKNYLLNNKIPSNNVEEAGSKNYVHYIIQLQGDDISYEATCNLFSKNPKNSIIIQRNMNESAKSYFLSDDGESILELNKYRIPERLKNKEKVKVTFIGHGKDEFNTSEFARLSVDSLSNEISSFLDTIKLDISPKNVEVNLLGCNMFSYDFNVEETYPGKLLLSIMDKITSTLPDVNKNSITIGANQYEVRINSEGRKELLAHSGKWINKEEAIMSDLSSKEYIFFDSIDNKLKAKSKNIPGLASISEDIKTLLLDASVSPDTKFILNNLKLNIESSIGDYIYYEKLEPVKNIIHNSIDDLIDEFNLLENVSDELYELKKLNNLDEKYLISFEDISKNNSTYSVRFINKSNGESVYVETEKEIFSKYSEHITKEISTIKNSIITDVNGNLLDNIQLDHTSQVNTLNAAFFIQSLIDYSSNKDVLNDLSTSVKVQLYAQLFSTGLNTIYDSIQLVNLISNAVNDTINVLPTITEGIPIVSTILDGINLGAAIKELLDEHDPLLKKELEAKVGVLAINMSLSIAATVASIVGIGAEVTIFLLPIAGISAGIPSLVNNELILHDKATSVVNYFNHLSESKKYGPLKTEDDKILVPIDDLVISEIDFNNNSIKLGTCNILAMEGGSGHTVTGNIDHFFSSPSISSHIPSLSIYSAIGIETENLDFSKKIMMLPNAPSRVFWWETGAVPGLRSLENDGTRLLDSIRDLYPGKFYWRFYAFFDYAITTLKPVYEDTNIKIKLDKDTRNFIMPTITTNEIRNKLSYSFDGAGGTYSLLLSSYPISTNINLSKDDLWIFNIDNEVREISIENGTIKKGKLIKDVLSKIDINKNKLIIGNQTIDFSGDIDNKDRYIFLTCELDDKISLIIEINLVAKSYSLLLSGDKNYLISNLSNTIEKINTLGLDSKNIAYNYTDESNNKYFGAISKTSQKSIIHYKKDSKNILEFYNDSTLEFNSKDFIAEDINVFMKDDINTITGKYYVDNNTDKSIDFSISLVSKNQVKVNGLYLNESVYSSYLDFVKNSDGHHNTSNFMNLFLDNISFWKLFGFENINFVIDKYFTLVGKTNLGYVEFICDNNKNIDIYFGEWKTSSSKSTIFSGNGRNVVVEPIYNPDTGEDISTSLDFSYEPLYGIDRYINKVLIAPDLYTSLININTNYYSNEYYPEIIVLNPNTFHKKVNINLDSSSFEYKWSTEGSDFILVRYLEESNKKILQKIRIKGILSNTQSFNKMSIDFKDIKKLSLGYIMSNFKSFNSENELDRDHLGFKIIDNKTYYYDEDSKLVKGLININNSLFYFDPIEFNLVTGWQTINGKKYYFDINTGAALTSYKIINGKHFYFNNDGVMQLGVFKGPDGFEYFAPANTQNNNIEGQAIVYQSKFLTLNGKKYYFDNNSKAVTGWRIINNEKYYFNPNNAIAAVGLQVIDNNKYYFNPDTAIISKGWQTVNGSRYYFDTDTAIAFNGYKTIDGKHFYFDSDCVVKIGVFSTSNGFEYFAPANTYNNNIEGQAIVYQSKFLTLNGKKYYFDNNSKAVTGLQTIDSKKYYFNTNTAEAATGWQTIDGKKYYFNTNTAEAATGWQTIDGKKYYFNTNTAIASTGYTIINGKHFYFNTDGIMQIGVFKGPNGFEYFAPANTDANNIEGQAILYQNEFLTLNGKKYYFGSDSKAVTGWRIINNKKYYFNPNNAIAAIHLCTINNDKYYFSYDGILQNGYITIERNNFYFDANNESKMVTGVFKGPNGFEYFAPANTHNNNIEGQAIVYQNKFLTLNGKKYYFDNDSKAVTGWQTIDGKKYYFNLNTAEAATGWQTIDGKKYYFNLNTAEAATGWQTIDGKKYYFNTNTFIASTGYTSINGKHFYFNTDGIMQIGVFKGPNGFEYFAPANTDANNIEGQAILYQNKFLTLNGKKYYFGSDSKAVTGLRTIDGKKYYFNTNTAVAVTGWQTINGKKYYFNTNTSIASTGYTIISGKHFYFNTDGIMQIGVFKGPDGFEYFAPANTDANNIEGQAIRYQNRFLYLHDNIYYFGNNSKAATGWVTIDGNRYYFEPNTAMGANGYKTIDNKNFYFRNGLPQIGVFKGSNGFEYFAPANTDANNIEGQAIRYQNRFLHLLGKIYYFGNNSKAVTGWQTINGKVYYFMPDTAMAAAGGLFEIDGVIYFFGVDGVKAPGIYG

Compound | apoptosis (Annexin V signal) [1] | ITC binding (TcdB-GTD) | Kd (TcdB-GTD) | N (TcdB-GTD) | ΔG (TcdB-GTD) | ΔH (TcdB-GTD) | −TΔS (TcdB-GTD) | Kd (TcdA [2]) | protection from cell rounding [3] | Ki (TcdB; in the presence of 2×Ki for UDP, read-out: kinetic Ki (apparent Ki)) | increase of affinity (TcdB; when UDP is present at 2×Ki) | mechanism of inhibition (TcdB; with respect to UDP-glucose) | un-glucosylated Rac1 (Mab102) compared to total Rac1 [4] | un-glucosylated Rac1 (Mab102) compared to total Rac1 [5] | protection from cell rounding [6] | inhibition of Tcds (in words) (TcdB) | Ki (TcdB; TcdB-UDP, read-out: Ki) | Ki (TcdA [7])
OC[C@H]1CNC[C@@H](O)[C@@H]1O [Isofagomine, (3R,4R,5R)-5-(hydroxymethyl)-3,4-piperidinediol] | prevented apoptosis | no binding | 66.9 ± 19.7 nM | 0.5±0.01 | -9.8 ± 0.3 kcal/mol | -10.3 ± 0.1 kcal/mol | 0.5 ± 0.2 kcal/mol | 7 nM | sufficient to protect CHO-K1 cells from rounding; also recorded: prevent rounding | 290 nM | 3 fold | uncompetitive | dose-dependent maintenance of un-glucosylated Rac1 | dose-dependent maintenance of un-glucosylated Rac1 | prevent rounding | – | – | –
OC[C@H]1NC[C@H](O)[C@@H](O)[C@@H]1O [deoxynorjirimycin, reference compound] | – | – | – | – | – | – | – | – | – | – | – | – | – | – | – | poor inhibition | – | –
O=C1O[C@H](CO)[C@@H](O)[C@H](O)[C@H]1O [Gluconolactone, reference compound] | – | – | – | – | – | – | – | – | – | – | – | – | – | – | – | poor inhibitor | – | –
OC[C@H]1CNC(O)[C@@H](O)[C@@H]1O (stereo partly shown) [Noeuromycin, noeuromycin] | prevented apoptosis | – | 180 ± 69.7 nM | 1.2±0.1 | -9.3 ± 0.3 kcal/mol | -5.2 ± 0.1 kcal/mol | – | – | prevent rounding | – | – | – | dose-dependent maintenance of un-glucosylated Rac1 | dose-dependent maintenance of un-glucosylated Rac1 | prevent rounding | – | 4000 nM | 200 nM
